We go through 23 compounds from US7786141B2 (Vertex Pharmaceuticals Incorporated, priority 2004, dated 2010).

One assay addresses T1, M1 muscarinic receptor (Homo sapiens, UniProt P11229).
T1 construct: expressed in transfected cells; host or cells: CHO (M1-CHO)
T1 sequence (P11229 1-460): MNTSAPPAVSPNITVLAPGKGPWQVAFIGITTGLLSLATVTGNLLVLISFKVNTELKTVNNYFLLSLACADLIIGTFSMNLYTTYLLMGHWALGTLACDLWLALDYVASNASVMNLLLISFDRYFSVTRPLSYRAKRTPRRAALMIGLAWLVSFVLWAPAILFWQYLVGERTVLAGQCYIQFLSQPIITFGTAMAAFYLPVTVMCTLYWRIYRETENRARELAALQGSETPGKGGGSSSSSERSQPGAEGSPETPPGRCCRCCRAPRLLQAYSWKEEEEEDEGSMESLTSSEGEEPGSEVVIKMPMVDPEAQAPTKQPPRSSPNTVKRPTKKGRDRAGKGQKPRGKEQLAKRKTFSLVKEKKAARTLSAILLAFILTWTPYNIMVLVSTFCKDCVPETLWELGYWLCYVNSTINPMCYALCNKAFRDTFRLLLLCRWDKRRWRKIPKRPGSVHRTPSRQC
As to the kind of experiment: Functional mobilization of intracellular calcium (FLIPR) in M1-CHO cells. Conditions: Table 4; for Emax: 100% efficacy is the maximum response obtained with the Carbachol control; for M1 Activity: modulating M1 receptor. The assay is classed as cell-based. A digest of the protocol: (§1)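 Measured via Fluo-3 fluorescence on a FLIPR, CHO cells with either muscarinic subtype received compound in 0.5% DMSO. Antagonism was assessed after 15 min pre-incubation followed by carbachol at each subtype's EC80; agonism from compound addition alone.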

The target in another assay is T2, M4 muscarinic receptor (Homo sapiens, UniProt P08173).
T2 construct: expressed in transfected cells; host or cells: CHO (M4-CHO)
T2 sequence (P08173 1-479): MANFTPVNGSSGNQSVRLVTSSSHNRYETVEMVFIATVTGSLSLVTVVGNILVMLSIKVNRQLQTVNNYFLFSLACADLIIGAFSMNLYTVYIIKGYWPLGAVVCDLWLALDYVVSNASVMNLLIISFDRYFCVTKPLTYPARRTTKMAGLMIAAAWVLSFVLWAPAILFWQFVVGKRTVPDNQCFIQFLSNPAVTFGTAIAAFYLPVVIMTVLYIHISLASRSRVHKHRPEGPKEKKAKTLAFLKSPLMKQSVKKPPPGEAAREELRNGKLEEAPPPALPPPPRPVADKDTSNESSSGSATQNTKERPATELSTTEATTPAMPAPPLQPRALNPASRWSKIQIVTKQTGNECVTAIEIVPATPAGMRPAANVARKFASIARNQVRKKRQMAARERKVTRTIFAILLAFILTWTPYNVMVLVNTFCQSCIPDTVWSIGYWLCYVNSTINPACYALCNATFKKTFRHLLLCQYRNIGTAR
The experiment in a line: Functional mobilization of intracellular calcium (FLIPR) in M4-CHO cells. The following applies: Table 4; for Emax: 100% efficacy is the maximum response obtained with the Carbachol control; for M4 Activity: modulating M4 receptor. The assay is classed as cell-based. A digest of the protocol:
as §1

SMILES strings stand for the structures.

Consider `C[C@@H](O)CC(=O)N1CCC(N2CCC3(CC2)CN(C(=O)N(C)C)c2ccc(F)cc23)CC1` [compound 463], for which, on M1 muscarinic receptor, the Emax lay within 25 to 100% and the “M1 Activity” value is recorded as “x (activity was measured to be greater than 5.0 μM)”. Moreover, on M4 muscarinic receptor, the maximal response (Emax) was below 25% and the “M4 Activity” value is “x (activity was measured to be greater than 5.0 μM)”.
On to `CCC(=O)N1CCC(N2CCC3(CC2)CN(C(=O)N(C)C)c2ccc(F)cc23)CC1` [compound 464], for which, on M1 muscarinic receptor, the maximal effect (Emax) lay within 25 to 100%; the “M1 Activity” value is “xx (activity was measured to be between 2.0 μM and 5.0 μM)”. Further, on M4 muscarinic receptor, the maximal effect (Emax) lay in the range of 25 to 100%; the “M4 Activity” value was “xx (activity was measured to be between 2.0 μM and 5.0 μM)”.
Regarding `CCOC(=O)N1C2CCC1CC(N1CCC3(CC1)CN(C(C)=O)c1ccc(OC(F)(F)F)cc13)C2` (centres unmarked) [compound 466], at M1 muscarinic receptor, the maximum response (Emax) lay in the range of 25 to 100% and the “M1 Activity” value is on record as “xxx (activity was measured to be less than 2.0 μM)”. Besides, at M4 muscarinic receptor, the Emax lay within 25 to 100% and the “M4 Activity” value was “xxx (activity was measured to be less than 2.0 μM)”.
Turning to `CCOC(=O)N1CCC(N2CCC3(CC2)CN(C(C)=O)c2c(-c4cccc(OC)c4)cccc23)CC1` [compound 467], at M1 muscarinic receptor, the Emax lay in the range of 25 to 100%; the “M1 Activity” value was “xx (activity was measured to be between 2.0 μM and 5.0 μM)”. Also, on M4 muscarinic receptor, the Emax lay within 25 to 100%; the “M4 Activity” value was “xx (activity was measured to be between 2.0 μM and 5.0 μM)”.
In the case of `CN(C)C(=O)N[C@H]1CCC2(CCN(C3CC4CCC(C4)C3)CC2)c2ccccc21` (some centres unmarked) [compound 468], on M1 muscarinic receptor, the Emax fell in the range of 25 to 100%; the “M1 Activity” value is “xx (activity was measured to be between 2.0 μM and 5.0 μM)”. Moreover, at M4 muscarinic receptor, the Emax was 25 to 100% and the “M4 Activity” value is “xxx (activity was measured to be less than 2.0 μM)”.
On to `CCCN1CC2(CCN(C3CCN(C(=O)OCC)CC3)CC2)c2cc(F)ccc21` [compound 469], for which, on M1 muscarinic receptor, the Emax was 25 to 100% and the “M1 Activity” value is “xxx (activity was measured to be less than 2.0 μM)”. Moreover, at M4 muscarinic receptor, the maximal response (Emax) lay within 25 to 100% and the “M4 Activity” value is listed as “xxx (activity was measured to be less than 2.0 μM)”.
`Cc1ccc2c(c1)C(=O)CC21CCN(CC2C[C@H]3CC[C@H]2C3)CC1` (some centres unmarked) [compound 470]: at M1 muscarinic receptor, the Emax was 25 to 100%; the “M1 Activity” value is “xx (activity was measured to be between 2.0 μM and 5.0 μM)”. Besides, on M4 muscarinic receptor, the maximal effect (Emax) is 25 to 100%; the “M4 Activity” value was “xx (activity was measured to be between 2.0 μM and 5.0 μM)”.
In the case of `CC(=O)N1CC2(CCN(C3CCN(c4nc(C)cs4)CC3)CC2)c2ccccc21` [compound 471], at M1 muscarinic receptor, the Emax lay in the range of 25 to 100%; the “M1 Activity” value was “xx (activity was measured to be between 2.0 μM and 5.0 μM)”. For the same compound, on M4 muscarinic receptor, the maximum response (Emax) was in the range of 25 to 100%; the “M4 Activity” value was “xx (activity was measured to be between 2.0 μM and 5.0 μM)”.
Turning to `CCOC(=O)N1CCC(N2CCC3(CC2)CN(C2CCC(=O)CC2)c2ccccc23)CC1` [compound 472], at M1 muscarinic receptor, the Emax is above 100% and the “M1 Activity” value is “xxx (activity was measured to be less than 2.0 μM)”. On M4 muscarinic receptor, the maximal effect (Emax) lay in the range of 25 to 100% and the “M4 Activity” value was “xxx (activity was measured to be less than 2.0 μM)”.
For `CCOC(=O)N1CCC(N2CCCC3(CC2)CN(C(C)=O)c2ccc(F)cc23)C1` (centres unmarked) [compound 473], at M1 muscarinic receptor, the Emax lay within 25 to 100% and the “M1 Activity” value is recorded as “x (activity was measured to be greater than 5.0 μM)”. For the same compound, at M4 muscarinic receptor, the Emax is below 25% and the “M4 Activity” value was “x (activity was measured to be greater than 5.0 μM)”.
Regarding `COCCN1CCC(N2CCC3(CC2)CN(C(C)=O)c2ccc(F)cc23)CC1` [compound 474], at M1 muscarinic receptor, the Emax is below 25% and the “M1 Activity” value is “x (activity was measured to be greater than 5.0 μM)”. Moreover, at M4 muscarinic receptor, the Emax was below 25% and the “M4 Activity” value is “x (activity was measured to be greater than 5.0 μM)”.
Regarding `CC(=O)N1CC2(CCN(C3CC4CCC(C3)N4C(=O)OCC(C)(C)C)CC2)c2ccccc21` (centres unmarked) [compound 476], on M1 muscarinic receptor, the Emax was below 25% and the “M1 Activity” value is listed as “x (activity was measured to be greater than 5.0 μM)”. In addition, at M4 muscarinic receptor, the Emax was below 25% and the “M4 Activity” value is given as “x (activity was measured to be greater than 5.0 μM)”.
As for `CCCCc1cncc(N2CCC(N3CCC4(CC3)CN(C(C)=O)c3ccccc34)CC2)n1` [compound 477], at M1 muscarinic receptor, the Emax is below 25% and the “M1 Activity” value is recorded as “x (activity was measured to be greater than 5.0 μM)”. Besides, at M4 muscarinic receptor, the Emax was below 25% and the “M4 Activity” value was “x (activity was measured to be greater than 5.0 μM)”.
Consider `CCCOC(=O)N1CC[C@@H](CN2CCC3(CC2)CN(C(C)=O)c2ccccc23)C1` [compound 478], for which, on M1 muscarinic receptor, the maximal effect (Emax) is below 25% and the “M1 Activity” value is given as “x (activity was measured to be greater than 5.0 μM)”. Further, on M4 muscarinic receptor, the Emax was below 25% and the “M4 Activity” value was “x (activity was measured to be greater than 5.0 μM)”.
In the case of `CC#CC(C)OC(=O)N1CC[C@@H](CN2CCC3(CC2)CN(C(=O)N(C)C)c2ccc(F)cc23)C1` (some centres unmarked) [compound 479], on M1 muscarinic receptor, the Emax was in the range of 25 to 100% and the “M1 Activity” value was “xxx (activity was measured to be less than 2.0 μM)”. Also, at M4 muscarinic receptor, the Emax is below 25% and the “M4 Activity” value is listed as “xxx (activity was measured to be less than 2.0 μM)”.
For `CC(=O)N[C@H]1CC2(CCN(CC(=O)N3CCOCC3)CC2)c2ccccc21` [compound 480], on M1 muscarinic receptor, the maximal effect (Emax) was below 25% and the “M1 Activity” value is given as “x (activity was measured to be greater than 5.0 μM)”. Besides, at M4 muscarinic receptor, the maximum response (Emax) was below 25% and the “M4 Activity” value is recorded as “x (activity was measured to be greater than 5.0 μM)”.
On to `CCC#CCOC(=O)N1CC[C@@H](CN2CCC3(CC2)CN(C(C)=O)c2ccccc23)C1` [compound 481], for which, at M1 muscarinic receptor, the Emax was 25 to 100% and the “M1 Activity” value is on record as “xxx (activity was measured to be less than 2.0 μM)”. In addition, on M4 muscarinic receptor, the maximal effect (Emax) is 25 to 100% and the “M4 Activity” value is given as “xxx (activity was measured to be less than 2.0 μM)”.
For `CCOC(=O)N1CC[C@H](CN2CCC3(CC2)CN(C(C)=O)c2ccccc23)C1` [compound 482], on M1 muscarinic receptor, the maximal response (Emax) lay in the range of 25 to 100% and the “M1 Activity” value is “xxx (activity was measured to be less than 2.0 μM)”. Further, on M4 muscarinic receptor, the Emax lay in the range of 25 to 100% and the “M4 Activity” value was “xxx (activity was measured to be less than 2.0 μM)”.
For the compound `CC1(C)C(=O)c2ccccc2C12CCN([C@H]1C[C@@H]3CC[C@@H]1C3)CC2` [compound 483], at M1 muscarinic receptor, the Emax was below 25% and the “M1 Activity” value is given as “x (activity was measured to be greater than 5.0 μM)”. Further, on M4 muscarinic receptor, the maximal response (Emax) is below 25% and the “M4 Activity” value was “x (activity was measured to be greater than 5.0 μM)”.
As to `CCOC(=O)N1C2CCC1CC(N1CCC3(CCCc4ccccc43)CC1)C2` (centres unmarked) [compound 484], at M1 muscarinic receptor, the Emax fell in the range of 25 to 100% and the “M1 Activity” value is “xxx (activity was measured to be less than 2.0 μM)”. Moreover, on M4 muscarinic receptor, the maximal effect (Emax) was 25 to 100% and the “M4 Activity” value is reported as “xxx (activity was measured to be less than 2.0 μM)”.
With `CC#CC(C)OC(=O)N1CC[C@H](CN2CCC3(CC2)CN(C(=O)N(C)C)c2ccc(F)cc23)C1` (some centres unmarked) [compound 485], on M1 muscarinic receptor, the maximum response (Emax) fell in the range of 25 to 100%; the “M1 Activity” value was “xx (activity was measured to be between 2.0 μM and 5.0 μM)”. In addition, on M4 muscarinic receptor, the Emax was below 25% and the “M4 Activity” value is reported as “xxx (activity was measured to be less than 2.0 μM)”.
For the compound `CC(=O)N[C@@H]1CCC2(CCN(CC3CC4C=CC3C4)CC2)c2ccccc21` (some centres unmarked) [compound 486], on M1 muscarinic receptor, the Emax was below 25% and the “M1 Activity” value is given as “x (activity was measured to be greater than 5.0 μM)”. Besides, at M4 muscarinic receptor, the Emax was 25 to 100% and the “M4 Activity” value is “xxx (activity was measured to be less than 2.0 μM)”.
In the case of `O=C(N[C@H]1CC2(CCN([C@@H]3C[C@H]4CC[C@@H]3C4)CC2)c2ccccc21)N1CCCC1` [compound 487], on M1 muscarinic receptor, the maximum response (Emax) is below 25% and the “M1 Activity” value is listed as “x (activity was measured to be greater than 5.0 μM)”. On M4 muscarinic receptor, the maximal response (Emax) is 25 to 100% and the “M4 Activity” value is listed as “xxx (activity was measured to be less than 2.0 μM)”.
